Experimental data as given in paper PMC9603521, “WYBQ-4: a New Bactericidal Agent against Methicillin-Resistant Staphylococcus aureus” (Microbiology Spectrum, 2022).
≈ marks a conversion by molar mass, not a printed value. Like-named read-outs stand apart in the source and are kept apart here.

What was measured:
[1] = system: Gram-negative bacteria; assay: MIC by broth microdilution (CLSI); assay type: cell-based; settings: compared to that against Staphylococcus
[2] = system: rabbit red blood cells; assay: Hemolytic activity; assay type: cell-based; settings: 0 to 512 μg/mL
[3] = system: MRSA USA300; assay: Mouse lung infection model, survival; assay type: in vivo, mice; settings: mouse pneumonia, USA300 2 × 10^8 CFU, 12-h intervals, within 72 h
Protocol: The animal experiments were performed using 6-week-old male C57BL/6J mice, and the mouse model of lung infection caused by MRSA USA300 was established as previously described ([43], [44]). For the survival rate, mice (10 per group) were infected with MRSA USA300 (2 × 10^8 CFU per mouse). After 2 h of infection, mice were given WYBQ-4 via subcutaneous injection and reinjected at 12-h intervals, whereas mice were treated with ceftaroline fosamil at the same doses and served as positive controls. Mice injected with only MRSA USA300 were used as a negative control. Survival of mice was recorded within 72 h, and survival rates were calculated.

[4] = system: A549 cells; assay: Cytotoxicity assay (cell viability); assay type: cell-based
Protocol: (§1) Cytotoxicity assay. The cytotoxicity of WYBQ-4 against A549, HEK-293T, or HepG2 cells was evaluated with a cell counting kit-8 kit (CCK8; US Everbright, Suzhou, China) according to the manufacturer’s instructions ([41]). In brief, 5 × 10^4 cells were seeded in 96-well plates containing prewarmed medium (100 μL) and incubated for 24 h at 37°C in 5% CO2. Then, various concentrations of WYBQ-4 (0 to 512 μg/mL) were added and further incubated for 24 h. Afterward, the cells were incubated with 100 μL of medium with 10 μL of CCK8 solution (Sigma-Aldrich) for 4 h. Finally, a solution of the purple precipitate dissolved in dimethyl sulfoxide (DMSO) was added to a 96-well plate, and the absorbance was measured at 450 nm.

[5] = system: HEK-293T cells; assay: Cytotoxicity assay (cell viability); assay type: cell-based
Protocol: as §1

[6] = system: HepG2 cells; assay: Cytotoxicity assay (cell viability); assay type: cell-based
Protocol: as §1

[7] = Acute toxicity test in mice; assay type: in vivo; settings: intraperitoneal injection 300 mg/kg
Protocol: Acute toxicity test in mice. The acute toxicity test in mice was performed according to the requirements of the Chinese Guidelines for Acute Toxicity of Chemicals (H-GPT1-1) ([42]). In brief, each group of 6 female mice (6 to 8 weeks old, weights of 18 to 20 g, BALB/c) was intraperitoneally injected with a single dose of 300, 150, or 75 mg/kg body weight of WYBQ-4. The mice were injected with PBS as a control group. Then, the poisoning symptoms, abnormal behavior, and survival of the mice in each group were observed within 72 h.

[8] = system: MRSA USA300; assay: Mouse lung infection model, bacterial load and histopathology; assay type: in vivo, mice; settings: mouse pneumonia
Protocol: The mice were challenged with 1 × 10^8 CFU of MRSA USA300 to assess bacterial load and pathological changes. The dose and manner of administration in mice were consistent with the survival experiments. In addition, the mice treated with ceftaroline fosamil at 75 and 37.5 mg/kg were used as control groups. At 48 h postinfection, mice were euthanized, and the left lungs were aseptically removed, weighed, and homogenized. Then, the lung tissues were homogenized and serially diluted for CFU counts. The right lungs were fixed with 10% formalin, embedded in paraffin, thin-sectioned, subjected to conventional hematoxylin and eosin (H&E) staining, and then observed using an optical microscope.

[9] = system: MRSA USA300; assay: MIC by broth microdilution (CLSI); assay type: cell-based; settings: Staphylococcus aureus
Protocol: (§2) The antibacterial spectrum and susceptibility of WYBQ-4 against MRSA USA300, MSSA 29213, and clinically isolated S. aureus were determined using a broth microdilution method following the guidelines outlined by the Clinical and Laboratory Standards Institute (CLSI) ([37], [38]). […] The absorbance was measured at 600 nm, and experiments were repeated in three biological replicates.

[10] = system: methicillin-susceptible Staphylococcus aureus (MSSA) 29213; assay: MIC by broth microdilution (CLSI); assay type: cell-based
Protocol: as §2

For C#CCO[C@@]1(NC(=O)CSc2cccc(C)c2)C(=O)N2C(C(=O)O)=C(CSc3nnnn3C)CSC21 (stereo partly drawn) [WYBQ-4], the antibacterial activity [1] was “weak”, the hemolytic activity [2] was “did not show hemolytic activity” and the survival rate ([3]; 37.5 mg/kg subcutaneous) was 36.67%. For the same compound, the survival rate ([3]; 75 mg/kg subcutaneous) was 70.00%, the cell viability [4] was “still viable” and the cell viability ([4]; A549, 0-128 μg/mL) was “did not affect the viability”. For the same compound, the cell viability [5] was “still viable”, the cell viability ([5]; HEK-293T, 0-128 μg/mL) was “did not affect the viability” and the cell viability [6] was “still viable”. For the same compound, the cell viability ([6]; HepG2, 0-128 μg/mL) was “did not affect the viability”, the “acute toxicity, survival of mice” value [7] was “did not affect the survival of the mice” and the “bacterial counts in the lung” value ([8]; USA300 1 × 10^8 CFU, 75 mg/kg, 48 h postinfection) was 5.44 ± 0.15 log10 CFU/g. The “inflammatory signs of lung tissue (H&E histopathology)” value ([8]; USA300, after treatment) was “significantly reduced”, the MIC [9] was 8 µg/mL (≈ 14.6 µM) and the MIC [10] was 0.5 µg/mL (≈ 0.915 µM).
